Measured values from patent US9044463B2, “FSH receptor antagonists” (Merck Sharp & Dohme B.V., priority 2011, dated 2015).

Biological target: T1, human FSH receptor (Homo sapiens, UniProt P23945)
T1 construct: expressed in transfected cells; host or cells: CHO (Chinese Hamster Ovary) cells, stably transfected; cotransfected with a CRE-luciferase reporter
T1 sequence (P23945 18-695): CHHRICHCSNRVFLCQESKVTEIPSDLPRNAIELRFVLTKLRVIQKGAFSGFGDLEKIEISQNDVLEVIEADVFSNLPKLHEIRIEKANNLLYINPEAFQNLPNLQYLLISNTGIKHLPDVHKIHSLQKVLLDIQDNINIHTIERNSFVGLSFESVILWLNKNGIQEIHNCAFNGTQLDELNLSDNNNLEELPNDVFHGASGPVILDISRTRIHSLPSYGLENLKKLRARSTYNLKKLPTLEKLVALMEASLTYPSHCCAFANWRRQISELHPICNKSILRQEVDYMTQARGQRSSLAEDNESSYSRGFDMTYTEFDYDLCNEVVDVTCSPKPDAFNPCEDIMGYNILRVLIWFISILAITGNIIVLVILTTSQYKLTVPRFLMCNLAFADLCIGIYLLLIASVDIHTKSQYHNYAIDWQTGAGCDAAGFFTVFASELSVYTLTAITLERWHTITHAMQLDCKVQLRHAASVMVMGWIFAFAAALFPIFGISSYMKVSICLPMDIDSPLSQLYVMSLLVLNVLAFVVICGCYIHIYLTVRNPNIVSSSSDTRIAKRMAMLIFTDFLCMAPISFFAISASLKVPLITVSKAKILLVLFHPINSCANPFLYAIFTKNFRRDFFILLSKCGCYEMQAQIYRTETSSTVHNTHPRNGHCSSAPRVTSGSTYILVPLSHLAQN
Experiment: Antagonistic activity at the human FSH receptor expressed in CHO cells (CRE-luciferase reporter)
Assay type: cell-based
Conditions: CHO cells stably transfected with human FSH receptor and CRE-luciferase; with 49 μM recFSH; 4 hours incubation; read-out: IC50 (inhibition of recFSH-induced luciferase stimulation)
Protocol: Antagonistic Activity of Compounds at the Human FSH Receptor Expressed in CHO Cells
Antagonistic activity of the compounds at the human FSH receptor was determined in Chinese Hamster Ovary (CHO) cells stably transfected with the human FSH receptor and cotransfected to with a cAMP responsive element (CRE)/promoter directing the expression of a firefly luciferase reporter gene. Binding of the compounds to the Gs protein-coupled FSH receptor will result in an increase of cAMP, which in turn will induce an increased transactivation of the luciferase reporter. The cells (7,500 cells/well of a 384 well plate) were incubated in Dulbecco′ minimal essential F12 modified medium (Invitrogen), supplemented with 1 μg/ml bovine insulin, 5 μg/ml human apo-transferrin, 100 U/ml penicillin G and 100 μg/ml streptomycin with the test compounds (concentration between 0.316 nM and 10.0 μM) in duplicate together with […] recFSH (which, at this concentration in the absence of test compound, induces 80% of the maximal luciferase stimulation) in a humidified atmosphere (95%) at 5-7% CO2 and 37° C. The final concentration of DMSO was 1%. After 4 hours of incubation, plates were allowed to adjust to room temperature for 1 hour. Then, SteadyLite (PerkinElmer) solution was added to the wells and cells were allowed to lyse for at least 1 hour at room temperature. Subsequently, luciferase activity was measured in a luminescence counter. The signal is expressed as counts per second (cps). The IC50 (concentration of test compound causing half-maximal (50%) inhibition of the maximally attainable inhibition of the luciferase stimulation by the compound) and efficacy of the compounds were determined using the software program MathIQ (version 2.3, ID Business Solutions Limited).

| IC50 | Compound |
| --- | --- |
| < 100 nM | COc1cc2c(c(OC)c1OC)CCc1cc(-c3ccccc3)c(C(=O)N[C@@H](CO)Cc3c[nH]c4ccccc34)cc1-2 [Example 1, (R)—N-(1-hydroxy-3-(1H-indol-3-yl)propan-2-yl)-6,7,8-trimethoxy-2-phenyl-9,10-dihydrophenanthrene-3-carboxamide] |
| < 100 nM | COc1cc2c(c(OC)c1OC)CCc1cc(-c3ccccc3F)c(C(=O)N[C@@H](CO)Cc3c[nH]c4ccccc34)cc1-2 [Example 2, 2-(2-fluorophenyl)-N—((R)-1-hydroxy-3-(1H-indol-3-yl)propan-2-yl)-6,7,8-trimethoxy-9,10-dihydrophenanthrene-3-carboxamide] |
| < 100 nM | COc1cc2c(c(OC)c1OC)CCc1cc(-c3cccc(F)c3F)c(C(=O)N[C@@H](CO)Cc3c[nH]c4ccccc34)cc1-2 [Example 3, 2-(2,3-difluorophenyl)-N—((R)-1-hydroxy-3-(1H-indol-3-yl)propan-2-yl)-6,7,8-trimethoxy-9,10-dihydrophenanthrene-3-carboxamide] |
| < 100 nM | COc1cc2c(c(OC)c1OC)CCc1cc(-c3cccs3)c(C(=O)N[C@@H](CO)Cc3c[nH]c4ccccc34)cc1-2 [Example 4, (R)—N-(1-hydroxy-3-(1H-indol-3-yl)propan-2-yl)-6,7,8-trimethoxy-2-(thiophen-2-v)-9,10-dihydrophenanthrene-3-carboxamide] |
| < 100 nM | COc1cc2c(c(OC)c1OC)CCc1cc(-c3sccc3C)c(C(=O)N[C@@H](CO)Cc3c[nH]c4ccccc34)cc1-2 [Example 5, N—((R)-1-hydroxy-3-(1H-indol-3-yl)propan-2-yl)-6,7,8-trimethoxy-2-(3-methylthiophen-2-yl)-9,10-dihydrophenanthrene-3-carboxamide] |
| < 100 nM | COc1cc2c(c(OC)c1OC)CCc1cc(-c3cccnc3OC)c(C(=O)N[C@@H](CO)Cc3c[nH]c4ccccc34)cc1-2 [Example 6, N—((R)-1-hydroxy-3-(1H-indol-3-yl)propan-2-yl)-6,7,8-trimethoxy-2-(2-methoxypyrdin-3-v)-9,10-dihydrophenanthrene-3-carboxamide] |
| < 100 nM | COc1cc2c(c(OC)c1OC)CCc1cc(OC(C)C)c(C(=O)N[C@@H](CO)Cc3c[nH]c4ccccc34)cc1-2 [Example 7, (R)—N-(1-hydroxy-3-(1H-indol-3-yl)propan-2-yl)-2-isopropoxy-6,7,8-trimethoxy-9,10-dihydrophenanthrene-3-carboxamide] |
| < 100 nM | COc1cc2c(cc1OC)-c1cc(C(=O)N[C@@H](CO)Cc3c[nH]c4ccccc34)c(-c3ccccc3F)cc1CC2 [Example 18, 2-(2-fluorophenyl)-N—((R)-1-hydroxy-3-(1H-indol-3-yl)propan-2-yl)-6,7-dimethoxy-9,10-dihydrophenanthrene-3-carboxamide] |
| < 100 nM | COc1cc2c(cc1OC)-c1cc(C(=O)N[C@@H](CO)Cc3c[nH]c4ccccc34)c(-c3c(F)cc(O)cc3F)cc1CC2 [Example 19, (R)-2-(2,6-difluoro-4-hydroxyphenyl)-N-(1-hydroxy-3-(1H-indol-3-yl)propan-2-yl)-6,7-dimethoxy-9,10-dihydrophenanthrene-3-carboxamide] |
| < 100 nM | COc1cc2c(cc1OC)-c1cc(C(=O)N[C@@H](CO)Cc3c[nH]c4ccccc34)c(-c3ccc(N)cc3F)cc1CC2 [Example 20, 2-(4-amino-2-fluorophenyl)-N—((R)-1-hydroxy-3-(1H-indol-3-yl)propan-2-yl)-6,7-dimethoxy-9,10-dihydrophenanthrene-3-carboxamide] |
| < 100 nM | COc1cc2c(cc1OC)-c1cc(C(=O)N[C@@H](CO)Cc3c[nH]c4ccccc34)c(-c3ccncc3F)cc1CC2 [Example 21, 2-(3-fluoropyridin-4-yl)-N—((R)-1-hydroxy-3-(1H-indol-3-yl)propan-2-yl)-6,7-dimethoxy-9,10-dihydrophenanthrene-3-carboxamide] |
| < 100 nM | COc1cc2c(cc1OC)-c1cc(C(=O)N[C@@H](CO)Cc3c[nH]c4ccccc34)c(-c3ccc(Cl)s3)cc1CC2 [Example 23, (R)-2-(5-chlorothiophen-2-yl)-N-(1-hydroxy-3-(1H-indol-3-yl)propan-2-yl)-6,7-dimethoxy-9,10-dihydrophenanthrene-3-carboxamide] |
| < 100 nM | COc1cc2c(cc1OC)-c1cc(C(=O)N[C@@H](CO)Cc3c[nH]c4ccccc34)c(-c3ccco3)cc1CC2 [Example 24, (R)-2-(furan-2-yl)-N-(1-hydroxy-3-(1H-indol-3-yl)propan-2-yl)-6,7-dimethoxy-9,10-dihydrophenanthrene-3-carboxamide] |
| < 100 nM | COc1cccc(-c2cc3c(cc2C(=O)N[C@@H](CO)Cc2c[nH]c4ccccc24)-c2cc(OC)c(OC)cc2CC3)c1 [Example 25, (R)—N-(1-hydroxy-3-(1H-indol-3-v)propan-2-v)-6,7-dimethoxy-2-(3-methoxyphenyl)-9,10-dihydrophenanthrene-3-carboxamide] |

Continued, compound first:

| Compound | IC50 |
| --- | --- |
| COc1cc2c(cc1OC)-c1cc(C(=O)N[C@@H](CO)Cc3c[nH]c4ccccc34)c(OCC3CC3)cc1CC2 [Example 8, (R)-2-(cyclopropylmethoxy)-N-(1-hydroxy-3-(1H-indol-3-yl)propan-2-yl)-6,7-dimethoxy-9,10-dihydrophenanthrene-3-carboxamide] | < 100 nM |
| COc1cc2c(cc1OC)-c1cc(C(=O)N[C@@H](CO)Cc3c[nH]c4ccccc34)c(OC3CCCC3)cc1CC2 [Example 9, (R)-2-(cyclopentyloxy)-N-(1-hydroxy-3-(1H-indol-3-yl)propan-2-yl)-6,7-dimethoxy-9,10-dihydrophenanthrene-3-carboxamide] | < 100 nM |
| CCCC(C)Oc1cc2c(cc1C(=O)N[C@@H](CO)Cc1c[nH]c3ccccc13)-c1cc(OC)c(OC)cc1CC2 (stereo partly drawn) [Example 10, N—((R)-1-hydroxy-3-(1H-indol-3-yl)propan-2-yl)-6,7-dimethoxy-2-(pentan-2-yloxy)-9,10-dihydrophenanthrene-3-carboxamide] | < 100 nM |
| COc1cc2c(cc1OC)-c1cc(C(=O)N[C@@H](CO)Cc3c[nH]c4ccccc34)c(OC(F)F)cc1CC2 [Example 11, (R)-2-(difluoromethoxy)-N-(1-hydroxy-3-(1H-indol-3-yl)propan-2-yl)-6,7-dimethoxy-9,10-dihydrophenanthrene-3-carboxamide] | < 100 nM |
| COc1cc2c(cc1OC)-c1cc(C(=O)N[C@@H](CO)Cc3c[nH]c4ccccc34)c(OC(C)C#N)cc1CC2 (stereo partly drawn) [Example 12, 2-(1-cyanoethoxy)-N—((R)-1-hydroxy-3-(1H-indol-3-yl)propan-2-yl)-6,7-dimethoxy-9,10-dihydrophenanthrene-3-carboxamide] | 100 to 1000 nM |
| C=CCOc1cc2c(cc1C(=O)N[C@@H](CO)Cc1c[nH]c3ccccc13)-c1cc(OC)c(OC)cc1CC2 [Example 13, (R)-2-(allyloxy)-N-(1-hydroxy-3-(1H-indol-3-yl)propan-2-yl)-6,7-dimethoxy-9,10-dihydrophenanthrene-3-carboxamide] | 100 to 1000 nM |
| COc1cc2c(cc1OC)-c1cc(C(=O)N[C@@H](CO)Cc3c[nH]c4ccccc34)c(OC(F)C(N)=O)cc1CC2 (stereo partly drawn) [Example 14, 2-(2-amino-1-fluoro-2-oxoethoxy)-N—((R)-1-hydroxy-3-(1H-indol-3-yl)propan-2-yl)-6,7-dimethoxy-9,10-dihydrophenanthrene-3-carboxamide] | 100 to 1000 nM |
| COCCOc1cc2c(cc1C(=O)N[C@@H](CO)Cc1c[nH]c3ccccc13)-c1cc(OC)c(OC)cc1CC2 [Example 15, (R)—N-(1-hydroxy-3-(1H-indol-3-yl)propan-2-yl)-6,7-dimethoxy-2-(2-methoxyethoxy)-9,10-dihydrophenanthrene-3-carboxamide] | 100 to 1000 nM |
| COc1cc2c(cc1OC)-c1cc(C(=O)N[C@@H](CO)Cc3c[nH]c4ccccc34)c(C(C)=C(C)C)cc1CC2 [Example 22, (R)—N-(1-hydroxy-3-(1H-indol-3-yl)propan-2-yl)-6,7-dimethoxy-2-(3-methylbut-2-en-2-yl)-9,10-dihydrophenanthrene-3-carboxamide] | < 100 nM |
